Reference: US8183262B2, “Pyridine derivatives as mGluR2 antagonists” (Hoffmann-La Roche Inc., priority 2007, dated 2012)

melting point	Compound
171 °C	Cc1cc(-c2ccc(C(F)(F)F)cc2)cc(-c2nc(-c3ccc(S(=O)(=O)NC(C)(C)C)s3)cs2)n1 [Example 324, 5-{2-[6-Methyl-4-(4-trifluoromethyl-phenyl)-pyridin-2-yl]-thiazol-4-yl}-thiophene-2-sulfonic acid tert-butylamide]
167 °C	Cc1cc(-c2ccc(C(F)(F)F)cc2)cc(-c2ccnc(-c3cccc(N)c3)n2)n1 [Example 326, 3-{4-[6-Methyl-4-(4-trifluoromethyl-phenyl)-pyridin-2-yl]-pyrimidin-2-yl}-phenylamine]
167 °C	Cc1cc(-c2ccc(C(F)(F)F)cc2)cc(-c2cccc(-c3cccc(N)c3)n2)n1 [Example 327, 3-[6′-Methyl-4′-(4-trifluoromethyl-phenyl)-[2,2′]bipyridinyl-6-yl]-phenylamine]
189 °C	COc1cc(-c2cc(C)nc(-c3ccnc(-c4cccc(S(=O)(=O)NC(C)(C)C)c4)c3)c2)ccc1C(F)(F)F [Example 336, N-tert-Butyl-3-[4-(3-methoxy-4-trifluoromethyl-phenyl)-6-methyl-[2,4′]bipyridinyl-2′-yl]-benzenesulfonamide]
209 °C (dec.)	COc1cc(-c2cc(C)nc(-c3ccnc(-c4ccc(S(=O)(=O)NC(C)(C)C)s4)c3)c2)ccc1C(F)(F)F [Example 339, 5-[4-(3-Methoxy-4-trifluoromethyl-phenyl)-6-methyl-[2,4′]bipyridinyl-2′-yl]-thiophene-2-sulfonic acid tert-butylamide]
233 °C (dec.)	COc1cc(-c2cc(C)nc(-c3ccnc(-c4cccc(S(N)(=O)=O)c4)c3)c2)ccc1C(F)(F)F [Example 340, 3-[4-(3-Methoxy-4-trifluoromethyl-phenyl)-6-methyl-[2,4′]bipyridinyl-2′-yl]-benzenesulfonamide]
261 °C (dec.)	COc1cc(-c2cc(C)nc(-c3ccnc(-c4ccc(S(N)(=O)=O)s4)c3)c2)ccc1C(F)(F)F [Example 341, 5-[4-(3-Methoxy-4-trifluoromethyl-phenyl)-6-methyl-[2,4′]bipyridinyl-2′-yl]-thiophene-2-sulfonic acid amide]
> 250 °C	Cc1cc(-c2ccc(C(F)(F)F)cc2)cc(-c2cccc(-c3csc(N)n3)c2)n1 [Example 342, 4-{3-[6-Methyl-4-(4-trifluoromethyl-phenyl)-pyridin-2-yl]-phenyl}-thiazol-2-ylamine]
156 °C (dec.)	Cc1cc(-c2ccc(C(F)(F)F)cc2)cc(-c2ccnc(-c3cccc(S(=O)(=O)N4CCSCC4)c3)c2)n1 [Example 347, 6-Methyl-2′-[3-(thiomorpholine-4-sulfonyl)-phenyl]-4-(4-trifluoromethyl-phenyl)-[2,4′]bipyridinyl]
103 °C (dec.)	Cc1cc(-c2ccc(C(F)(F)F)cc2)cc(-c2ccnc(-c3cccc(S(=O)(=O)NCCO)c3)c2)n1 [Example 348, N-(2-Hydroxy-ethyl)-3-[6-methyl-4-(4-trifluoromethyl-phenyl)-[2,4′]bipyridinyl-2′-yl]-benzenesulfonamide]
92 °C	Cc1cc(-c2ccc(C(F)(F)F)cc2)cc(-c2ccnc(-c3cccc(S(=O)(=O)NC(C)(C)CO)c3)c2)n1 [Example 349, N-(2-Hydroxy-1,1-dimethyl-ethyl)-3-[6-methyl-4-(4-trifluoromethyl-phenyl)-[2,4′]bipyridinyl-2′-yl]-benzenesulfonamide]
191 °C	Cc1cc(-c2ccc(C(F)(F)F)cc2)cc(-c2cccc(-c3cccc(NS(=O)(=O)N4CCOCC4)c3)n2)n1 [Example 351, Morpholine-4-sulfonic acid {3-[6′-methyl-4′-(4-trifluoromethyl-phenyl)-[2,2′]bipyridinyl-6-yl]-phenyl}-amide]
160 °C	Cc1cc(-c2ccc(C(F)(F)F)cc2)cc(-c2cccc(-c3ccnc(N)c3)n2)n1 [Example 358, 6-Methyl-4-(4-trifluoromethyl-phenyl)-[2,2′;6′,4″]terpyridin-2″-ylamine]
110 °C (dec.)	Cc1cc(-c2ccc(C(F)(F)F)cc2)cc(-c2cccc(-c3cccc(S(=O)(=O)NCCO)c3)n2)n1 [Example 359, N-(2-Hydroxy-ethyl)-3-[6′-methyl-4′-(4-trifluoromethyl-phenyl)-[2,2′]bipyridinyl-6-yl]-benzenesulfonamide]
87 °C (dec.)	Cc1cc(-c2ccc(C(F)(F)F)cc2)nc(-c2ccnc(-c3cccc(N)c3)c2)c1 [Example 361, 3-[4-Methyl-6-(4-trifluoromethyl-phenyl)-[2,4]bipyridinyl-2′-yl]-phenylamine]
75 °C	CC(C)(C)NS(=O)(=O)c1cccc(-c2cccc(-c3nc(-c4ccc(C(F)(F)F)cc4)cc(C(F)(F)F)n3)n2)c1 [Example 362, N-tert-Butyl-3-{6-[4-trifluoromethyl-6-(4-trifluoromethyl-phenyl)-pyrimidin-2-yl]-pyridin-2-yl}-benzenesulfonamide]

melting point	Compound
171 °C	Cc1cc(-c2ccc(C(F)(F)F)cc2)cc(-c2cccc(-c3cccc(S(=O)(=O)NC(C)(C)CO)c3)n2)n1 [Example 363, N-(2-Hydroxy-1,1-dimethyl-ethyl)-3-[6′-methyl-4′-(4-trifluoromethyl-phenyl)-[2,2′]bipyridinyl-6-yl]-benzenesulfonamide]
244 °C (dec.)	NS(=O)(=O)c1cccc(-c2cccc(-c3nc(-c4ccc(C(F)(F)F)cc4)cc(C(F)(F)F)n3)n2)c1 [Example 364, 3-{6-[4-Trifluoromethyl-6-(4-trifluoromethyl-phenyl)-pyrimidin-2-yl]-pyridin-2-yl}-benzenesulfonamide]
230 °C (dec.)	Cc1cc(-c2ccc(C(F)(F)F)cc2)cc(-c2cccc(-c3cccc(S(=O)(=O)N4CCS(=O)(=O)CC4)c3)n2)n1 [Example 368, 6′-[3-(1,1-Dioxo-1λ6-thiomorpholine-4-sulfonyl)-phenyl]-6-methyl-4-(4-trifluoromethyl-phenyl)-[2,2′]bipyridinyl]
174 °C	Cc1cc(-c2ccc(C(F)(F)F)cc2)cc(-c2cccc(-c3cccc(S(=O)(=O)N4CCCC4)c3)n2)n1 [Example 369, 6-Methyl-6′-[3-(pyrrolidine-1-sulfonyl)-phenyl]-4-(4-trifluoromethyl-phenyl)-[2,2′]bipyridinyl]
167 °C (dec.)	Cc1cc(-c2ccc(C(F)(F)F)cc2)cc(-c2cccc(-c3cccc(S(=O)(=O)N4CCN(C)CC4)c3)n2)n1 [Example 370, 6-Methyl-6′-[3-(4-methyl-piperazine-1-sulfonyl)-phenyl]-4-(4-trifluoromethyl-phenyl)-[2,2′]bipyridinyl]
126 °C	COCCNS(=O)(=O)c1cccc(-c2cccc(-c3cc(-c4ccc(C(F)(F)F)cc4)cc(C)n3)n2)c1 [Example 371, N-(2-Methoxy-ethyl)-3-[6′-methyl-4′-(4-trifluoromethyl-phenyl)-[2,2′]bipyridinyl-6-yl]-benzenesulfonamide]
123 °C	Cc1cc(-c2ccc(C(F)(F)F)cc2)cc(-c2cccc(-c3cccc(S(=O)(=O)NCCOCCO)c3)n2)n1 [Example 372, N-[2-(2-Hydroxy-ethoxy)-ethyl]-3-[6′-methyl-4′-(4-trifluoromethyl-phenyl)-[2,2′]bipyridinyl-6-yl]-benzenesulfonamide]
216 °C	Cc1cc(-c2ccc(C(F)(F)F)cc2)cc(-c2cccc(-c3cccc(S(=O)(=O)N4CCOCC4)c3)n2)n1 [Example 373, 6-Methyl-6′-[3-(morpholine-4-sulfonyl)-phenyl]-4-(4-trifluoromethyl-phenyl)-[2,2′]bipyridinyl]
144 °C	CCC(=O)NS(=O)(=O)c1cccc(-c2cc(-c3nc(-c4ccc(C(F)(F)F)cc4)cc(C(F)(F)F)n3)ccn2)c1 [Example 374, N-Propionyl-3-{4-[4-trifluoromethyl-6-(4-trifluoromethyl-phenyl)-pyrimidin-2-yl]-pyridin-2-yl}-benzenesulfonamide]
257 °C	CCC(=O)NS(=O)(=O)c1ccc(-c2cc(-c3nc(-c4ccc(C(F)(F)F)cc4)cc(C(F)(F)F)n3)ccn2)s1 [Example 375, 5-{4-[4-Trifluoromethyl-6-(4-trifluoromethyl-phenyl)-pyrimidin-2-yl]-pyridin-2-yl}-thiophene-2-sulfonic acid propionyl-amide]
158 °C (dec.)	Cc1cc(-c2ccc(Cl)c(C)c2)nc(-c2cccc(-c3ccc(N)nc3)c2)n1 [Example 376, 5-{3-[4-(4-Chloro-3-methyl-phenyl)-6-methyl-pyrimidin-2-yl]-phenyl}-pyridin-2-ylamine]
249.5 °C	Nc1ccc(-c2cn(-c3nc(-c4ccc(F)cc4)cc(C(F)(F)F)n3)cn2)cn1 [Example 378, 5-{1-[4-(4-Fluoro-phenyl)-6-trifluoromethyl-pyrimidin-2-yl]-1H-imidazol-4-yl}-pyridin-2-ylamine]
201 °C	Cc1cc(-c2ccc(Cl)c(C)c2)nc(-c2cccc(-c3cccc(S(N)(=O)=O)c3)c2)n1 [Example 379, 3′-[4-(4-Chloro-3-methyl-phenyl)-6-methyl-pyrimidin-2-yl]-biphenyl-3-sulfonic acid amide]
240 °C	Cc1cc(-c2ccc(Cl)c(C)c2)nc(-c2cccc(-c3ccc(S(N)(=O)=O)s3)c2)n1 [Example 380, 5-{3-[4-(4-Chloro-3-methyl-phenyl)-6-methyl-pyrimidin-2-yl]-phenyl}-thiophene-2-sulfonic acid amide]
192.5 °C	O=S(=O)(NCCO)c1cccc(-c2cc(-c3nc(-c4ccc(C(F)(F)F)cc4)cc(C(F)(F)F)n3)ccn2)c1 [Example 381, N-(2-Hydroxy-ethyl)-3-{4-[4-trifluoromethyl-6-(4-trifluoromethyl-phenyl)-pyrimidin-2-yl]-pyridin-2-yl}-benzenesulfonamide]

Compound	melting point
Cc1cc(-c2ccc(C(F)(F)F)cc2)cc(-c2cccc(-c3csc(NS(=O)(=O)NC(=O)OC(C)(C)C)n3)c2)n1 [Example 344, N-(tert-Butoxycarbonyl)-N′-(4-{3-[6-methyl-4-(4-trifluoromethyl-phenyl)-pyridin-2-yl]-phenyl}-thiazol-2-yl)-sulfamide]	152 °C (dec.)
